Counter-ions that a name gives are not always drawn.
Key:
Type in all cases: in vivo, mouse
[1] = Body weight and tolerability, WSU-Luc ibrutinib study (Example 12); settings: alone or combined
Description: Tumor growth was monitored with vernier calipers. Tumor volume was calculated using the formula V=W^2×L/2, where V=volume, W=width and L=length of the tumor. When the mean tumor volume reached approximately 190 mm^3, the animals were randomized into treatment groups (n=8/group). […] Tumor growth and body weight were measured twice per week. Tumor growth inhibition and body weight change were calculated on Day 20 of treatment.

TMD8 DLBCL xenografts = test: Antitumor activity in CB17 SCID mice bearing TMD8 DLBCL xenografts, bendamustine combination (Example 3); settings: bendamustine 1 mg/kg IV BIW, alone or combined, Day 14
[2] = Body weight and tolerability, TMD8 gemcitabine study (Example 8); settings: alone or combined
Description: Experimental design: Female CB17 SCID mice (Taconic Biosciences; weight at treatment start was 19 g) were inoculated subcutaneously in the flank (cell suspension) with 5.0×10^6 TMD8 cells. Tumor growth was monitored with vernier calipers. Tumor volume was calculated using the formula V=W^2×L/2, where V=volume, W=width and L=length of the tumor. When the mean tumor volume reached approximately 215 mm^3, the animals were randomized into treatment groups (n=8/group). […] Tumor growth and body weight were measured twice per week. Tumor growth inhibition and body weight change were calculated on Day 14 of treatment.

## Cn1cc(-c2nc(N[C@@H]3CCCC[C@@H]3N)c(F)c3c2C(=O)NC3)cn1 [Compound A, 6-((1R,2S)-2-aminocyclohexylamino)-7-fluoro-4-(1-methyl-1H-pyrazol-4-yl)-1H-pyrrolo[3,4-c]pyridine-3 (2H)-one citrate]
[1]; Compound A 60 mg/kg PO QD 21 d, ibrutinib 20 mg/kg PO QD 21 d
  % BW Change (Day Maximum): 11.6 (20) %
[1]; Compound A 60 mg/kg, ibrutinib 20 mg/kg
  Number of animals removed: 0
TMD8 DLBCL xenografts; Compound A 60 mg/kg PO QD 14 d
  Mean Tumor Volume (mm^3) ± SEM: 1,085.5 ± 173.3 mm^3
TMD8 DLBCL xenografts; Compound A 60 mg/kg PO QD
  T/C: 0.61
  TGI (%): 38.5%
[2]; Compound A 60 mg/kg PO QD 14 d, gemcitabine 5 mg/kg IP Q3D x4
  % BW Change (Day Maximum): 6.4 (12) %
[2]; Compound A 60 mg/kg, gemcitabine 5 mg/kg
  Number of animals removed: 0

Source: patent US20190231757A1, “COMBINATION OF SPLEEN TYROSINE KINASE INHIBITORS AND OTHER THERAPEUTIC AGENTS” (Takeda Pharmaceutical Company Limited, priority 2016, published 2019)
